Assay results as given in US10590078B2, “Sodium channel blockers” (Daewoong Pharmaceutical Co., Ltd., priority 2015, dated 2020).
pIC50: −log10 of the molar value.

Target: human sodium ion channel 1.7 (hNav1.7) (Homo sapiens, UniProt Q15858)
Assay: Blocking effect against sodium ion channel Nav1.7, IonFlux16 auto patch clamp in hNav1.7 HEK293 cells
Type: cell-based
Settings: hNav1.7 HEK293 cells; inhibition of peak current after 50 seconds treatment; eight concentrations; read-out: IC50

Sequence of human sodium ion channel 1.7 (hNav1.7) (Q15858 whole entry): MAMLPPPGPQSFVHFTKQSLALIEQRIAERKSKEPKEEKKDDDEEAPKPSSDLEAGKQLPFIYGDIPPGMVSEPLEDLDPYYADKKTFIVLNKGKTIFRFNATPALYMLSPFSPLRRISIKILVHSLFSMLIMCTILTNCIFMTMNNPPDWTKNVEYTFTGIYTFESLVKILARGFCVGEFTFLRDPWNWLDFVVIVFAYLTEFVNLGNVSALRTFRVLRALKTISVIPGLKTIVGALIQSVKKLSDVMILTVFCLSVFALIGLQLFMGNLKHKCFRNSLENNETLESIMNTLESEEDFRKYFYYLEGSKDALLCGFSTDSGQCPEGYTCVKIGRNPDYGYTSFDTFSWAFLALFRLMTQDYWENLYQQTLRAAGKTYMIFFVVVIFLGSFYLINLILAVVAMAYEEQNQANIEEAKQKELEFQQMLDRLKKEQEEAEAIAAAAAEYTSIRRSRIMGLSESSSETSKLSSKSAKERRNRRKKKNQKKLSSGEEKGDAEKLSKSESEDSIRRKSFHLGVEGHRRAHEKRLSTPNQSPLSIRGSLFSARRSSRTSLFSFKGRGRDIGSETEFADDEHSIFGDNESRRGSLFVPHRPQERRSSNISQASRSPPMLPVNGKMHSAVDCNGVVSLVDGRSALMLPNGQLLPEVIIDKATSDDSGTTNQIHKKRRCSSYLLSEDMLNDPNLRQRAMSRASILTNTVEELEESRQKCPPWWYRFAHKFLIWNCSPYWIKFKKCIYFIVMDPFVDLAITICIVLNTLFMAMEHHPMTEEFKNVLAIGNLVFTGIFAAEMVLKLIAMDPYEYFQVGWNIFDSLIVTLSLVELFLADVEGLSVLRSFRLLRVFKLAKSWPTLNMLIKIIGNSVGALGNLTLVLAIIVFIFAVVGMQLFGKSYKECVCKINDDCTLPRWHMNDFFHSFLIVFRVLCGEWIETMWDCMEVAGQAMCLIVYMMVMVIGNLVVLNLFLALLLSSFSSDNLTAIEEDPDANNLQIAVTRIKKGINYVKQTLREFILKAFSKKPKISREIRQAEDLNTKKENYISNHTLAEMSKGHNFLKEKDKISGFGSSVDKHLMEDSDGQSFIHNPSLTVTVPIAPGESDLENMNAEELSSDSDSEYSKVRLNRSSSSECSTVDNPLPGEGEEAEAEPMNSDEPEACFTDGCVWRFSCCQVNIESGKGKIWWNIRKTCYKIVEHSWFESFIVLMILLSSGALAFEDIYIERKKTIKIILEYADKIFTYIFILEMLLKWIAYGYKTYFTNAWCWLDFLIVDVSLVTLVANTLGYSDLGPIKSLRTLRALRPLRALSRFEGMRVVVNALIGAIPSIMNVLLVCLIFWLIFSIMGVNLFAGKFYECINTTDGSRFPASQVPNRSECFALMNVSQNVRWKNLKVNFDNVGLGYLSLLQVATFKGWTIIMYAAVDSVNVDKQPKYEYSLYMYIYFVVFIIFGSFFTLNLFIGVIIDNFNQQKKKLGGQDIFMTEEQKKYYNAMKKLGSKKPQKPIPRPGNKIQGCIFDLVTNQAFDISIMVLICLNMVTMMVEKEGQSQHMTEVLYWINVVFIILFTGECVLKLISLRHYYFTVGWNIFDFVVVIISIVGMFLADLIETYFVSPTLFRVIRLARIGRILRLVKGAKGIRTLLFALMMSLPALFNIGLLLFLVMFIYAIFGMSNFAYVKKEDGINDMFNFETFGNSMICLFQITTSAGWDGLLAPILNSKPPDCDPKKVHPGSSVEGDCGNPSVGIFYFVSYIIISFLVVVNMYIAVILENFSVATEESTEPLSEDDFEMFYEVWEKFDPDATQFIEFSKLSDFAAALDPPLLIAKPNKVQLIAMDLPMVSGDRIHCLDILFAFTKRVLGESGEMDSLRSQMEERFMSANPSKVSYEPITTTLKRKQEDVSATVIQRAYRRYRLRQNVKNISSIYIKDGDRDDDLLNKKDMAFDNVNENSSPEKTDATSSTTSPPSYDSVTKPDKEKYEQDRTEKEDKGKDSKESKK

Row | SMILES | pIC50
1 | CS(=O)(=O)NC(=O)c1ccc(-n2nc(-c3ccccc3)c3cc(Cl)ccc32)cc1F [Example 127, 4-(5-chloro-3-phenyl-1H-indazol-1-yl)-2-fluoro-N-(methylsulfonyl)benzamide] | 5.41
2 | CS(=O)(=O)NC(=O)c1ccc(-n2nc(-c3ccc(F)cc3F)c3cc(Cl)ccc32)c(C#N)c1 [Example 105, 4-(5-chloro-3-(2,4-difluorophenyl)-1H-indazol-1-yl)-3-cyano-N-(methylsulfonyl)benzamide] | 6.02
3 | Cc1ncc(-c2nn(-c3cc(F)c(C(=O)NS(C)(=O)=O)cc3Cl)c3ccc(Cl)cc23)s1 [Example 91, 5-chloro-4-(5-chloro-3-(2-methylthiazol-5-yl)-1H-indazol-1-yl)-2-fluoro-N-(methylsulfonyl)benzamide] | 5.71
4 | Cc1cc(Cl)ccc1-c1ccc2c(c1)c(Cl)nn2-c1cc(F)c(C(=O)NS(C)(=O)=O)cc1Cl [Example 253, 5-chloro-4-(3-chloro-5-(4-chloro-2-methylphenyl)-1H-indazol-1-yl)-2-fluoro-N-(methylsulfonyl)benzamide] | 6.32
5 | COc1ncccc1-c1nn(-c2ccc(C(=O)NS(C)(=O)=O)cc2C#N)c2ccc(Cl)cc12 [Example 106, 4-(5-chloro-3-(2-methoxypyridin-3-yl)-1H-indazol-1-yl)-3-cyano-N-(methylsulfonyl)benzamide] | 5.22
6 | CS(=O)(=O)NC(=O)c1cc(Cl)c(-n2cc(-c3cccc(F)c3)c3cccnc32)cc1F [Example 214, 5-chloro-2-fluoro-4-(3-(3-fluorophenyl)-1H-pyrrolo[2,3-b]pyridin-1-yl)-N-(methylsulfonyl)benzamide] | 6.47
7 | CC(=O)Nc1nn(-c2cc(F)c(C(=O)NS(C)(=O)=O)cc2Cl)c2ccc(Cl)cc12 [Example 6, 4-(3-acetamido-5-chloro-1H-indazol-1-yl)-5-chloro-2-fluoro-N-(methylsulfonyl)benzamide] | < 5.00
8 | CS(=O)(=O)NC(=O)c1cc(Cl)c(-n2nc(Cl)c3cc(-c4cccnc4F)ccc32)cc1F [Example 244, 5-chloro-4-(3-chloro-5-(2-fluoropyridin-3-yl)-1H-indazol-1-yl)-2-fluoro-N-(methylsulfonyl)benzamide] | 5.63
9 | CS(=O)(=O)NC(=O)c1cc(Cl)c(-n2nc(-c3cn[nH]c3)c3cc(Cl)ccc32)cc1F [Example 89, 5-chloro-4-(5-chloro-3-(1H-pyrazol-4-yl)-1H-indazol-1-yl)-2-fluoro-N-(methylsulfonyl)benzamide] | < 5.00
10 | CS(=O)(=O)NC(=O)c1cc(Cl)c(-n2nc(Cl)c3cc(-c4ccncc4)ccc32)cc1F [Example 232, 5-chloro-4-(3-chloro-5-(pyridin-4-yl)-1H-indazol-1-yl)-2-fluoro-N-(methylsulfonyl)benzamide] | 5.52 to 6.00
11 | CS(=O)(=O)NC(=O)c1cc(Cl)c(-n2nc(/C=C/c3ccc(C(F)(F)F)cc3)c3cc(Cl)ccc32)cc1F [Example 137, (E)-5-chloro-4-(5-chloro-3-(4-(trifluoromethyl)styryl)-1H-indazol-1-yl)-2-fluoro-N-(methylsulfonyl)benzamide] | 6.17
12 | CS(=O)(=O)NC(=O)c1cc(Cl)c(-n2nc(Cl)c3c(Cl)c(OCc4ccc(F)cc4)ccc32)cc1F [Example 31, 5-chloro-4-(3,4-dichloro-5-((4-fluorobenzyl)oxy)-1H-indazol-1-yl)-2-fluoro-N-(methylsulfonyl)benzamide] | 5.82
13 | CS(=O)(=O)NC(=O)c1cc(Cl)c(-n2nc(Cl)c3cc(Cl)ncc32)cc1F [Example 11, 5-chloro-4-(3,5-dichloro-1H-pyrazolo[3,4-c]pyridin-1-yl)-2-fluoro-N-(methylsulfonyl)benzamide] | < 5.00
14 | Cn1nccc1-c1nn(-c2cc(F)c(S(=O)(=O)Nc3cscn3)cc2Cl)c2ccc(Cl)cc12 [Example 282, 5-chloro-4-(5-chloro-3-(1-methyl-1H-pyrazol-5-yl)-1H-indazol-1-yl)-2-fluoro-N-(thiazol-4-yl)benzenesulfonamide] | 5.78
15 | CS(=O)(=O)NC(=O)c1cc(Cl)c(-n2cc(-c3ccccc3F)c3cccnc32)cc1F [Example 213, 5-chloro-2-fluoro-4-(3-(2-fluorophenyl)-1H-pyrrolo[2,3-b]pyridin-1-yl)-N-(methylsulfonyl)benzamide] | 6.14

Now those with a higher pIC50, led by results:

Row | pIC50 | SMILES
16 | 7.70 | CS(=O)(=O)NC(=O)c1cc(Cl)c(-n2nc(-c3ccc(F)cc3Cl)c3cc(Cl)ccc32)cc1F [Example 74, 5-chloro-4-(5-chloro-3-(2-chloro-4-fluorophenyl)-1H-indazol-1-yl)-2-fluoro-N-(methylsulfonyl)benzamide]
17 | 6.96 | CC(C)Cc1ccc2c(c1)c(-c1ccccc1)nn2-c1cc(F)c(C(=O)NS(C)(=O)=O)cc1Cl [Example 84, 5-chloro-2-fluoro-4-(5-isobutyl-3-phenyl-1H-indazol-1-yl)-N-(methylsulfonyl)benzamide]
18 | 7.05 | CS(=O)(=O)NC(=O)c1cc(Cl)c(-n2nc(-c3cccc(F)c3)c3cc(F)ccc32)cc1F [Example 148, 5-chloro-2-fluoro-4-(5-fluoro-3-(3-fluorophenyl)-1H-indazol-1-yl)-N-(methylsulfonyl)benzamide]
19 | 6.55 | CS(=O)(=O)NC(=O)c1ccc(-n2nc(-c3ccc(Cl)cc3F)c3cc(Cl)ccc32)c(C#N)c1 [Example 100, 4-(5-chloro-3-(4-chloro-2-fluorophenyl)-1H-indazol-1-yl)-3-cyano-N-(methylsulfonyl)benzamide]
20 | 7.10 | CS(=O)(=O)NC(=O)c1cc(Cl)c(-n2cc(-c3ccc(Cl)cc3)c3cc(Cl)cnc32)cc1F [Example 195, 5-chloro-4-(5-chloro-3-(4-chlorophenyl)-1H-pyrrolo[2,3-b]pyridin-1-yl)-2-fluoro-N-(methylsulfonyl)benzamide]
21 | 6.74 | CS(=O)(=O)NC(=O)c1cc(Cl)c(-n2cc(-c3ccc(F)cc3F)c3cccnc32)cc1F [Example 229, 5-chloro-4-(3-(2,4-difluorophenyl)-1H-pyrrolo[2,3-b]pyridin-1-yl)-2-fluoro-N-(methylsulfonyl)benzamide]
22 | 7.39 | CS(=O)(=O)NC(=O)c1cc(Cl)c(-n2nc(-c3ccccc3C(F)(F)F)c3cc(Cl)ccc32)cc1F [Example 63, 5-chloro-4-(5-chloro-3-(2-(trifluoromethyl)phenyl)-1H-indazol-1-yl)-2-fluoro-N-(methylsulfonyl)benzamide]
23 | 7.02 | CS(=O)(=O)NC(=O)c1cc(Cl)c(-n2nc(-c3cccc(C#N)c3)c3cc(Cl)ccc32)cc1F [Example 61, 5-chloro-4-(5-chloro-3-(3-cyanophenyl)-1H-indazol-1-yl)-2-fluoro-N-(methylsulfonyl)benzamide]
24 | 6.55 | CS(=O)(=O)NC(=O)c1cc(Cl)c(-n2nc(Cl)c3cc(C4CC4)ccc32)cc1F [Example 24, 5-chloro-4-(3-chloro-5-cyclopropyl-1H-indazol-1-yl)-2-fluoro-N-(methylsulfonyl)benzamide]
25 | 6.54 | CS(=O)(=O)NC(=O)c1ccc(-n2nc(-c3ccccc3F)c3cc(Cl)ccc32)c(F)c1 [Example 124, 4-(5-chloro-3-(2-fluorophenyl)-1H-indazol-1-yl)-3-fluoro-N-(methylsulfonyl)benzamide]
26 | 7.10 | CS(=O)(=O)NC(=O)c1cc(Cl)c(-n2nc(-c3ccc(OC(F)(F)F)cc3)c3cc(Cl)ccc32)cc1F [Example 83, 5-chloro-4-(5-chloro-3-(4-(trifluoromethoxy)phenyl)-1H-indazol-1-yl)-2-fluoro-N-(methylsulfonyl)benzamide]
